Several values for one entry are separate records, joined by “and”; a condition that tells them apart may be missing. Equal entries are not always repeated. Toxic doses and inconclusive results are not listed. The calls were made as follows: active = survival T/C of 150% or more; inactive = T/C below 125% in these data. Starred links: 1 amine or outer side, 2 acyl side, 3 side chain; linkers in the order of their positions; H or OH if unused. Positions of bridges follow the written chain, without caps; N, C: chain ends. Non-standard residues stand in square brackets, D forms with d. Residues, ends and D or L forms follow the SMILES beside them. Chains are numbered I, II in the order given. Actinocin(9to1) = Cc1c2oc3c(C)ccc(C(=O)[*:1])c3nc-2c(C(=O)[*:2])c(N)c1=O; NMeV = CN[CH](C(=O)O)C(C)C; Sar = CNCC(=O)O
Test system: BALB/c mice, Madison 109 lung carcinoma i.m., survival
Test: NCI In Vivo Anticancer Drug Screen. Data for tumor model Madison 109 Lung Carcinoma (intramuscular) in BALB/CM mice
Conditions: endpoint: median survival time, higher = longer survival
Method: The antitumor activity of compounds was measured in mice bearing transplantable tumors. Survival or tumor size were measured and the results are expressed as the measurement made in the treated group (T) divided by the measurement made in the vehicle treated control group (C). The tumor model used in this assay is Madison 109 Lung Carcinoma (intramuscular) in BALB/CM mice

[1] = dose: 5.0 mg/kg/injection, schedule: Q01DX009 (ip), vehicle: saline with Tween-80
[2] = dose: 10.0 mg/kg/injection, schedule: Q01DX009 (ip), vehicle: saline with Tween-80
[3] = dose: 20.0 mg/kg/injection, schedule: Q01DX009 (ip), vehicle: saline with Tween-80
[4] = dose: 6.25 mg/kg/injection, schedule: Q01DX009 (ip), vehicle: saline with Tween-80
[5] = dose: 12.5 mg/kg/injection, schedule: Q01DX009 (ip), vehicle: saline with Tween-80
[6] = dose: 25.0 mg/kg/injection, schedule: Q01DX009 (ip), vehicle: saline with Tween-80
[7] = dose: 50.0 mg/kg/injection, schedule: Q01DX009 (ip), vehicle: saline with Tween-80
[8] = dose: 8.0 mg/kg/injection, schedule: Q01DX009 (ip), vehicle: saline with Tween-80
[9] = dose: 16.0 mg/kg/injection, schedule: Q01DX009 (ip), vehicle: saline with Tween-80
[10] = dose: 32.0 mg/kg/injection, schedule: Q01DX009 (ip), vehicle: saline with Tween-80
[11] = dose: 64.0 mg/kg/injection, schedule: Q01DX009 (ip), vehicle: saline with Tween-80
[12] = dose: 2.0 mg/kg/injection, schedule: Q01DX009 (ip), vehicle: saline with Tween-80
[13] = dose: 4.0 mg/kg/injection, schedule: Q01DX009 (ip), vehicle: saline with Tween-80
[14] = dose: 128.0 mg/kg/injection, schedule: Q01DX009 (ip), vehicle: saline with Tween-80
[15] = dose: 256.0 mg/kg/injection, schedule: Q01DX009 (ip), vehicle: saline with Tween-80
[16] = dose: 512.0 mg/kg/injection, schedule: Q01DX009 (ip), vehicle: saline with Tween-80
[17] = dose: 0.5 mg/kg/injection, schedule: Q01DX009 (ip), vehicle: saline with Tween-80
[18] = dose: 0.03 mg/kg/injection, schedule: Q01DX009 (ip), vehicle: saline
[19] = dose: 0.06 mg/kg/injection, schedule: Q01DX009 (ip), vehicle: saline
[20] = dose: 0.12 mg/kg/injection, schedule: Q01DX009 (ip), vehicle: saline
[21] = dose: 100.0 mg/kg/injection, schedule: Q01DX009 (ip), vehicle: saline with Tween-80
[22] = dose: 200.0 mg/kg/injection, schedule: Q01DX009 (ip), vehicle: saline with Tween-80
[23] = dose: 400.0 mg/kg/injection, schedule: Q01DX009 (ip), vehicle: saline with Tween-80

Measured: T/C

O=[N+]([O-])c1ccc(Cl)c([N+](=O)[O-])c1
inactive: [1] 102 % of control | dose: 6.25 mg/kg/injection, schedule: Q02DX009 (ip), vehicle: water 117 % of control | [2] 100 % of control | dose: 12.5 mg/kg/injection, schedule: Q02DX009 (ip), vehicle: water 113 % of control | [3] 93 % of control | dose: 25.0 mg/kg/injection, schedule: Q02DX009 (ip), vehicle: water 113 % of control | dose: 40.0 mg/kg/injection, schedule: Q01DX009 (ip), vehicle: saline with Tween-80 105 % of control | dose: 50.0 mg/kg/injection, schedule: Q02DX009 (ip), vehicle: water 107 % of control | dose: 80.0 mg/kg/injection, schedule: Q01DX009 (ip), vehicle: saline with Tween-80 111 % of control | dose: 100.0 mg/kg/injection, schedule: Q02DX009 (ip), vehicle: water 107 % of control

O=[N+]([O-])c1ccc([N+](=O)[O-])c(Cl)c1
inactive: dose: 2.5 mg/kg/injection, schedule: Q01DX009 (ip), vehicle: saline with Tween-80 101 % of control | [1] 97 % of control | [2] 99 % of control

ClC1=C(Cl)C2(Cl)C3C(Cl)C(Cl)CC3C1(Cl)C2(Cl)Cl (stereo unspecified)
inactive: [4] 110 % of control and 113 % of control | [5] 100 % of control and 120 % of control | [6] 89 % of control and 95 % of control | [7] 102 % of control and 116 % of control

Cc1cc(N(CC(C)Br)CC(C)Br)ccc1N=Nc1ccccc1C(=O)O (stereo unspecified)
inactive: dose: 3.12 mg/kg/injection, schedule: Q01DX009 (ip), vehicle: saline with Tween-80 110 % of control | [4] 105 % of control | [5] 113 % of control

O=S(=O)(O)O
inactive: [8] 109 % of control | [9] 108 % of control | [10] 111 % of control | [11] 112 % of control

Nc1ncnc2nc[nH]c12
inactive: [12] 120 % of control | [13] 119 % of control | [8] 101 % of control and 108 % of control | [9] 90 % of control and 117 % of control and 120 % of control

COc1ccc(C[C@H](N)C(=O)NC2C(CO)OC(n3cnc4c(N(C)C)ncnc43)C2O)cc1 (stereo partly specified)
inactive: [8] 101 % of control | [9] 104 % of control | [10] 104 % of control | [11] 121 % of control

N=C(N)c1ccc(/C=C/c2ccc(C(=N)N)cc2)cc1
inactive: [13] 106 % of control | [8] 109 % of control | [10] 119 % of control | [11] 116 % of control

Cc1c[nH]c(=O)[nH]c1=O
inactive: [10] 115 % of control and 118 % of control | [11] 97 % of control and 112 % of control | [14] 86 % of control and 115 % of control | [15] 106 % of control and 118 % of control | [16] 101 % of control and 102 % of control

CC(=O)OCC1OC(OC(C)=O)C(NC(=O)N(CCCl)N=O)C(OC(C)=O)C1OC(C)=O (stereo unspecified)
inactive: [17] 100 % of control and 111 % of control | dose: 1.0 mg/kg/injection, schedule: Q01DX009 (ip), vehicle: saline with Tween-80 92 % of control and 102 % of control and 109 % of control | [12] 94 % of control and 112 % of control | [13] 110 % of control and 118 % of control

COC1C(O)CC(OC2CC(Oc3cc4cc5c(c(O)c4c(O)c3C)C(=O)[C@@H](OC3CC(OC4CC(OC6CC(C)(O)C(OC(C)=O)C(C)O6)C(O)C(C)O4)C(O)C(C)O3)[C@H]([C@H](OC)C(=O)[C@@H](O)[C@@H](C)O)C5)OC(C)C2OC(C)=O)OC1C (stereo partly specified)
inactive: dose: 0.01 mg/kg/injection, schedule: Q01DX009 (ip), vehicle: saline 100 % of control | [18] 102 % of control | [19] 105 % of control | [20] 95 % of control

Nc1n[nH]c(N)n1
inactive: [21] 93 % of control | [22] 101 % of control | [23] 104 % of control | dose: 800.0 mg/kg/injection, schedule: Q01DX009 (ip), vehicle: saline with Tween-80 110 % of control | dose: 1600.0 mg/kg/injection, schedule: Q01DX009 (ip), vehicle: saline with Tween-80 108 % of control

Nc1ccc(S(N)(=O)=O)cc1
inactive: [6] 95 % of control | [7] 108 % of control and 115 % of control | [21] 119 % of control | [22] 105 % of control and 119 % of control | [23] 102 % of control and 113 % of control

O=C1C=CC(=O)O1 (tested in a mixture with another compound)
inactive: dose: 12.5 mg/kg/injection, schedule: Q01DX009 (ip), vehicle: saline 113 % of control | dose: 25.0 mg/kg/injection, schedule: Q01DX009 (ip), vehicle: saline 110 % of control | dose: 50.0 mg/kg/injection, schedule: Q01DX009 (ip), vehicle: saline 104 % of control | dose: 100.0 mg/kg/injection, schedule: Q01DX009 (ip), vehicle: saline 110 % of control

CC(C)NCC(O)COc1cccc2ccccc12 (stereo unspecified)
inactive: [13] 111 % of control | [10] 124 % of control | [11] 120 % of control

CC(=O)Nc1ccc(/C=N/NC(N)=S)cc1
inactive: [6] 106 % of control and 108 % of control | [7] 94 % of control and 108 % of control | [21] 92 % of control and 124 % of control | [22] 89 % of control | [23] 113 % of control and 114 % of control

c1ccc([C@H]2CN3CCSC3=N2)cc1
inactive: dose: 5.0 mg/kg/injection, schedule: Q01DX009 (ip), vehicle: saline 94 % of control | dose: 10.0 mg/kg/injection, schedule: Q01DX009 (ip), vehicle: saline 96 % of control | dose: 20.0 mg/kg/injection, schedule: Q01DX009 (ip), vehicle: saline 103 % of control

CCOC(=O)NC1=C(N2CC2)C(=O)C(NC(=O)OCC)=C(N2CC2)C1=O
inactive: dose: 0.12 mg/kg/injection, schedule: Q01DX009 (ip), vehicle: saline with Tween-80 99 % of control and 102 % of control and 111 % of control | dose: 0.25 mg/kg/injection, schedule: Q01DX009 (ip), vehicle: saline with Tween-80 105 % of control and 111 % of control | [17] 103 % of control and 105 % of control

Cc1c2oc3c(C)ccc(C(=O)NC4C(=O)NC(C(C)C)C(=O)N5CCCC5C(=O)N(C)CC(=O)N(C)C(C(C)C)C(=O)OC4C)c3nc-2c(C(=O)NC2C(=O)NC(C(C)C)C(=O)N3CCCC3C(=O)N(C)CC(=O)N(C)C(C(C)C)C(=O)OC2C)c(N)c1=O (stereo unspecified) (I: TVP[Sar][NMeV] / II: TVP[Sar][NMeV]; ester I:1-I:C, II:1-II:C; linker I:N-II:N via Actinocin(9to1); configuration not given here)
inactive: [18] 101 % of control | [19] 107 % of control | [20] 101 % of control | dose: 0.25 mg/kg/injection, schedule: Q01DX009 (ip), vehicle: saline 119 % of control

Nc1ccnc(=O)[nH]1
inactive: [10] 111 % of control and 115 % of control | [11] 98 % of control and 105 % of control | [14] 104 % of control and 105 % of control | [15] 93 % of control and 105 % of control | [16] 115 % of control and 117 % of control

COc1cccc2c1C(=O)c1c(O)c3c(c(O)c1C2=O)CC(O)(C(=O)CO)CC3OC1CC(N)C(O)C(C)O1 (stereo unspecified)
inactive: [2] 100 % of control | [3] 108 % of control

CCOC(=O)CC(SP(=S)(OC)OC)C(=O)OCC (stereo unspecified)
inactive: [6] 108 % of control | [7] 112 % of control | [21] 121 % of control | [22] 96 % of control

CC(C)CC(NC(=O)C(O)C(N)Cc1ccccc1)C(=O)O (stereo unspecified)
inactive: dose: 10.0 micrograms/kg/injection, schedule: Q01DX005 (ip), vehicle: saline 101 % of control

CC(=O)c1cccc(NC2C(N)C(NC(=O)N(C)C)(C(C)O)C(C)(O)C2(O)COC(=O)c2c(C)cccc2O)c1 (stereo unspecified)
inactive: dose: 0.3 mg/kg/injection, schedule: Q01DX009 (ip), vehicle: saline 98 % of control | dose: 0.6 mg/kg/injection, schedule: Q01DX009 (ip), vehicle: saline 100 % of control | dose: 1.2 mg/kg/injection, schedule: Q01DX009 (ip), vehicle: saline 103 % of control

NC(C/[N+]([O-])=N/O)C(=O)O (stereo unspecified)
inactive: dose: 2.0 mg/kg/injection, schedule: Q01DX009 (ip), vehicle: saline 96 % of control | dose: 4.0 mg/kg/injection, schedule: Q01DX009 (ip), vehicle: saline 116 % of control | dose: 8.0 mg/kg/injection, schedule: Q01DX009 (ip), vehicle: saline 93 % of control | dose: 16.0 mg/kg/injection, schedule: Q01DX009 (ip), vehicle: saline 118 % of control | dose: 32.0 mg/kg/injection, schedule: Q01DX009 (ip), vehicle: saline 99 % of control

— PubChem BioAssay AID302 (DTP/NCI, 2004)
